Consider one compound from US9140689B2, “Methods of determining susceptibility of tumors to tyrosine kinase inhibitors” (Translational Genomics Research Institute, priority 2010, dated 2015).

Holding throughout (type): cell-based, murine
For assay [1], the system named is BaF3/FGFR2b wildtype cells. Description: BaF3/FGFR2b cell viability (ViaLight assay), wildtype. The conditions noted are these: Mus musculus, BaF3, 72 h, read-out: IC50 value in BaF3/FGFR2b wildtype. Here is the method:
(§1) The BaF3 cell line is an IL-3 dependent murine pro-B cell line that is commonly employed to model TKI resistant mutations. BaF3 cells are made dependent on a specific oncogenic tyrosine kinase, and are cultured in the presence of a kinase inhibitor against that specific kinase, and resistant colonies can be screened for drug resistant mutations. This approach effectively reproduced the pattern and relative abundance of Bcr-Abl mutations seen clinically in imatinib-resistant patients (Von Bubnoff, N. et al, Blood. 2005 105:1652-1659)
(§2) BaF3/FGFR2b wildtype and N550K mutation variant cells were plated at a density of 10,000 cells/well in a 96-well plate. […] (Selleck Chemicals) or PD173074 (Calbiochem) was added in half-log dilutions in the absence of IL3 and in the presence of 1 nM FGF10 and 5 μg/mL heparin. After 72 hours, cell viability was measured using the ViaLight assay from Lonza (Visp, CH). The IC50 values shown in FIG. 1 were normalized to DMSO control and data were analyzed with Prism software. […].

Assay [2] has as its system BaF3/FGFR2b N550K mutation variant cells. Description: BaF3/FGFR2b cell viability (ViaLight assay), N550K variant. Here is the method: as §1, §2
Assay [3] relates to BaF3/FGFR2b E719G mutation variant cells. Nature of the assay: BaF3/FGFR2b TKI resistance test, E719G variant alone. The text has this: Genomic DNA was isolated from the BaF3.FGFR2b colonies selected in the […]-resistance screen. Exons encoding the intracellular domain of FGFR2b were amplified and sequencing performed in two directions. Mutations in the intracellular domain of FGFR2b were identified in 26 of the 63 (41%) […] resistant BaF3.FGFR2b clones. Among the 26 FGFR2b mutations, eleven different mutation variants were detected (Table 1). The eleven different mutation variants are: M536I, M538I, I548V, N550H, N550K, N550S, V565I, E566G, L618M, E719G, and Y770IfsX14. The most commonly mutated codon was N550, with mutations occurring in 19 of the 26 (73%) resistant clones. In addition, E719G mutation variant was identified in a clone with a N550H mutation; […]. Similar tests were performed with the other 10 FGFR2b mutation variants. The majority of the mutations identified in this drug resistance screen result in activation of FGFR2. […]. The FGFR2 mutations resistance to another TKI PD173074 were also tested. […] The receptor activation of FGFR2 mutants and wildtype were measured and compared in the presence of FGF ligand. […]

As to `CCN(CC)CCCCNc1ncc2cc(-c3cc(OC)cc(OC)c3)c(NC(=O)NC(C)(C)C)nc2n1` [PD173074], the IC50 in assay [1] was 4.5 nM; in assay [2] (Mus musculus, BaF3, 72 h, read-out: IC50 value in N550K resistance cells) it was 776 nM. In addition, the “fold difference of IC50, N550K versus wildtype” value in assay [2] (BaF3/FGFR2b N550K vs wildtype) is on record as “over 170 fold”. For the same compound, the “resistance conferred by E719G mutation alone” value in assay [3] is reported as “did not induce resistance”.
